Data from US20080194499A1, “Composition for selective serotonin reuptake inhibition and process thereof” (priority 2007, published 2008).

Tests used:
Type in all cases: in vivo, Swiss albino mice
mice [1] = assay: Tail suspension test in mice; conditions: 64 mg/kg p.o.
Description: Effect of Test Compound on Tail Suspension in Mice
This test is used to evaluate potential antidepressants by determining the percentage decrease in immobility in rodents. […] Clinically effective anti-dependents reduce the immobility that mice display after active and unsuccessful attempts to escape when suspended by tail.
Swiss albino mice of either sex weighing 25-30 g would be housed in plastic cages for at least 10 days prior to testing. Animals would be allowed to adapt to the testing environment for 1 hr before testing. […] For the test, the mice would be suspended on the edge of a shelf 58 cm above a tabletop by adhesive tape placed approximately 1 cm from the tip of the tail. The duration of immobility would be recorded for a period of 6 min continuously. Mice are considered immobile when they hang passively and completely motionless for at least […].
The percentage of animals showing the passive behavior is counted and compared with vehicle treated controls using various doses.

mice [2] = assay: Locomotor activity in mice (Actophotometer)
Experimental: Effect of Test Compound on Locomotor Activity in Mice This test is conducted to rule out the sedative aspect of the anti-depressants. Besides, it can also eliminate certain muscle relaxant effects of the drug. Swiss albino mice are tested in a locomotors chamber with laser sensors to check their movements. The locomotors score is a direct function of the mobility of the animal. Decrease in mobility could be due to sedative effect and muscle relaxant effect. Swiss albino mice of either sex weighing 25-30 g would be housed in plastic cages for at least 10 days prior to testing. Animals would be allowed to adapt to the testing environment for 1 hr before testing. […] For the test the mice would be individually placed in Actophotometer.

mice [3] = assay: Forced swim test; conditions: 100 mg/kg p.o.
Experimental: Mice forced to swim in a restricted space from which they cannot escape are induced to a characteristic behavior of immobility.
Male Swiss albino mice weighing 25-30 g would be brought into the laboratory at least one day before the experiment and would be housed separately in cages. Mice would be individually forced to swim inside a vertical Plexiglas cylinder (25×23 cm) containing 12 cm of water maintained at 25° C.
After 2-3 min activity begins to subside and to be interspersed with phases of immobility or floating of increasing length. After 5-6 min immobility reaches a plateau where the mice remain immobile for approximately 80% of the time. After 15 min in the water the mice would be removed and would be allowed to dry in a heated enclosure (32° C.) before being returned to their home cages. They would again be placed in the cylinder 24 hr later and the total duration of immobility would be counted for the last 4 min of 6 min test session. An animal is judged to be immobile whenever it remains floating passively in the water in a slightly hunched but upright position, its nose just above the surface.

mice [4] = assay: Forced swim test after reserpine administration
Experimental: Reserpine Antagonism Depletion of biogenic amines in brain induces not only catalepsy but also hypothermia in rodents. The decrease of body temperature induced by reserpine is antagonized by antidepressants, MAO-inhibitors and central stimulants. Reserpine also decreases the levels of brain neuroamines like serotonin. […] Forced Swim Test after Reserpine Administration Male Swiss albino mice weighing 25-30 g would be used. All the animals would be Pre trained individually to swim for 15 minutes in vertical plexiglass cylinder (25×23 cm) containing 12 cm of water maintained at 25° C. They would be injected with 5 mg/kg reserpine i.p. after 20 hr of pretraining.

mice [5] = assay: Locomotor activity test after reserpine administration
Experimental: The intra-peritoneal administration of reserpine (5 mg/kg, i.p.) in mice leads to reduce locomotor activity which can be antagonized by antidepressants, MAO-inhibitors and central stimulants. Male Swiss albino mice weighing 25-30 g would be used.

re uptake of serotonin = assay: 5-Hydroxytryptophan (L 5-HTP) potentiation in mice; conditions: 64 mg/kg p.o.
Experimental: 5-Hydroxytryptophan (L 5-HTP) Potentiation in Mice
Several antidepressant agents potentiate serotonin effects by a block of the re uptake of serotonin. 5-Hydroxytryptophan is used as the precursor of serotonin.
Groups of 6 Swiss albino mice (25-30 g) would be used. […] The mice would be then placed into glass bell jars and the number of head twitches would be counted in five 2-min intervals (between 14 and 16, 24 and 26, 34 and 36, 44 and 46 and 54 and 56 min).

SMILES	TOTAL IMMOBILITY TIME (mice [1]; 60 min before test, 6 min recording)	% DECREASE IN IMMOBILITY (mice [1]; vs vehicle group)	TOTAL LOCOMOTOR ACTIVITY COUNTS (mice [2]; 64 mg/kg p.o., 60 min before test, 10 min count)	% INCREASE IN LOCOMOTOR ACTIVITY (mice [2]; 64 mg/kg p.o., vs vehicle group)	sedative effect (in words) (mice [2]; mice, locomotor activity test)	TOTAL IMMOBILITY TIME (mice [3]; one hour before test, last 4 min of 6 min session)	% DECREASE IN IMMOBILITY (mice [3]; vs vehicle group)	TOTAL IMMOBILITY TIME (mice [4]; 100 mg/kg oral, 4 h after reserpine 5 mg/kg i.p., 6 min swim)	% DECREASE IN IMMOBILITY (mice [4]; 100 mg/kg oral, vs reserpine group)	% INCREASE IN LOCOMOTOR ACTIVITY (mice [5]; 64 mg/kg oral, vs reserpine group)	TOTAL NO OF HEAD TWITCHES MEAN ± SEM (re uptake of serotonin; 60 min before 75 mg/kg i.p. 5-HTP)	% INCREASE IN NO OF HEAD TWITCHES (re uptake of serotonin; vs vehicle group)	TOTAL IMMOBILITY TIME (mice [4]; reserpine 5 mg/kg i.p. alone)	TOTAL LOCOMOTOR ACTIVITY COUNTS (mice [5]; reserpine 5 mg/kg i.p. alone)
CN(C)CCCN1c2ccccc2CCc2ccccc21 [Imipramine]	90.90 ± 7.690 s	51.88%	127.00 ± 06.90	−38.80%	induces sedation	45.17 ± 4.450 s	71.44%	063.57 ± 3.320 s	71.24%	079.91%	13.25 ± 2.477	−38.73%		
COC(=O)[C@H]1[C@H]2C[C@@H]3c4[nH]c5cc(OC)ccc5c4CCN3C[C@H]2C[C@@H](OC(=O)c2cc(OC)c(OC)c(OC)c2)[C@@H]1OC [Reserpine]													221.60 ± 6.793 s	121.17 ± 06.112
